For the test, the target named is Human plasma kallikrein (Homo sapiens (Human), UniProt P03952). Briefly: In vitro plasma kallikrein inhibition assay (chromogenic substrate D-Pro-Phe-Arg-pNa, absorbance at 405 nm, IC50 determination). The class given is biochemical. To be noted: read-out: KLKB1 pIC50 (converted).
Chain of Human plasma kallikrein (P03952 391-638): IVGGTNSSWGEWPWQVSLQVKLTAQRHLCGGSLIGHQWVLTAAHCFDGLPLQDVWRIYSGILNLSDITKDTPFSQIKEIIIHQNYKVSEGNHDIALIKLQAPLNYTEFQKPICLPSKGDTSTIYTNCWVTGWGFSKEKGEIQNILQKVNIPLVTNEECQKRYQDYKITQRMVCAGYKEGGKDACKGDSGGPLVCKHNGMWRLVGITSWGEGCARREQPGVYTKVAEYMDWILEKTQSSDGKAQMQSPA
Chain of Human plasma kallikrein (P03952 20-390 partner): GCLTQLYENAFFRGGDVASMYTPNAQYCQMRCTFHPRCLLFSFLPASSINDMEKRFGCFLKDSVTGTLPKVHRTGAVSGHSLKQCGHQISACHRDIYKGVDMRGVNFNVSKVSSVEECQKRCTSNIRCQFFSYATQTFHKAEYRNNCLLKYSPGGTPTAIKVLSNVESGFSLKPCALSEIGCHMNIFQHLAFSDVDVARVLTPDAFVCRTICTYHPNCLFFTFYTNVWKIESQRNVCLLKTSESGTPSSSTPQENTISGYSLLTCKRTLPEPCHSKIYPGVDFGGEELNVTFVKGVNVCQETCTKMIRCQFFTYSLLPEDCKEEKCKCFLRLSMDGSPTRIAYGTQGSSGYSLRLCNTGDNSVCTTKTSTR
Regarding `Cc1cc(N)nc(C)c1CNC(=O)c1ccc2c(c1)[C@@H]1O[C@H]2c2ccc(C(=O)N(C)c3ccc(F)cc3)cc21` (single isomer, unassigned) [Example 196], the IC50 was 4680 nM.
The result for `Cc1cc(C(=N)N)cc(C)c1CNC(=O)c1ccc2c(c1)[C@@H]1O[C@H]2c2ccc(-c3ccc(F)cc3F)cc21` (single isomer, unassigned) [Example 199] reads 0.741 nM; that for `N=C(N)c1ccc(CNC(=O)c2ccc3c(c2)[C@@H]2O[C@H]3c3ccc(-c4ccc(F)cc4)cc32)cc1` (single isomer, unassigned) [Example 201], 1 nM; that for `Nc1noc2cc(CNC(=O)c3ccc4c(c3)[C@@H]3O[C@H]4c4ccc(-c5ccc(F)cc5F)cc43)ccc12` (single isomer, unassigned) [Example 205], 1000 nM.
The figure for `N=C(N)c1ccc(CNC(=O)c2ccc3c(c2)[C@@H]2O[C@H]3c3ccc(Br)cc32)cc1` (single isomer, unassigned) [Example 206] is 37.2 nM; for `Nc1n[nH]c2cc(CNC(=O)c3ccc4c(c3)[C@@H]3O[C@H]4c4ccc(-c5ccc(F)cc5F)cc43)ccc12` (single isomer, unassigned) [Example 207] it is 4900 nM; for `Cc1nc(N)cc(C(C)C)c1CNC(=O)c1ccc2c(c1)[C@@H]1O[C@H]2c2ccc(-c3ccc(F)cc3F)cc21` (single isomer, unassigned) [Example 208] it is 1 nM.
The result for `N=C(N)c1ccc(CNC(=O)c2ccc3c(c2)[C@@H]2O[C@H]3c3ccc(-c4ccc(F)cc4F)cc32)cc1F` (single isomer, unassigned) [Example 211] reads 11.7 nM.
As for `Cc1cc(N)nc(C)c1CNC(=O)c1ccc2c(c1)[C@@H]1O[C@H]2c2ccc(-c3cccnc3C)cc21` (single isomer, unassigned) [Example 212], the IC50 is 70.8 nM.
`COc1ncccc1-c1ccc2c(c1)[C@H]1O[C@@H]2c2ccc(C(=O)NCc3c(C)cc(N)nc3C)cc21` (single isomer, unassigned) [Example 213]: the IC50 was 676 nM.
The figure for `Cc1cc(N)nc(C)c1CNC(=O)c1ccc2c(c1)[C@@H]1O[C@H]2c2ccc(-c3ccc(F)c[n+]3[O-])cc21` (single isomer, unassigned) [Example 214] is 83.2 nM; for `Cc1ccncc1-c1ccc2c(c1)[C@H]1O[C@@H]2c2ccc(C(=O)NCc3c(C)cc(N)nc3C)cc21` (single isomer, unassigned) [Example 215] it is 79.4 nM.
The figure for `Cc1ccc(-c2ccc3c(c2)[C@H]2O[C@@H]3c3ccc(C(=O)NCc4cccc5c(N)nccc45)cc32)c(C#N)c1` (single isomer, unassigned) [Example 216] is 15.8 nM.
The figure for `N=C(N)c1ccc(CNC(=O)c2ccc3c(c2)[C@@H]2O[C@H]3c3ccc(-c4ccc(Cl)s4)cc32)cc1` (single isomer, unassigned) [Example 217] is 2 nM; for `Cc1cc(N)nc(C)c1CNC(=O)c1ccc2c(c1)[C@@H]1O[C@H]2c2ccc(N(C)c3cccc(F)c3)cc21` (single isomer, unassigned) [Example 218] it is 26.9 nM; for `C=Cc1cc(N)nc(C)c1CNC(=O)c1ccc2c(c1)[C@@H]1O[C@H]2c2ccc(-c3ccc(F)cc3F)cc21` (single isomer, unassigned) [Example 219] it is 17 nM.
With `Cc1cc(N)nc(C)c1CNC(=O)c1ccc2c(c1)[C@@H]1O[C@H]2c2ccc(C(=O)c3ccccc3)cc21` (single isomer, unassigned) [Example 220], the IC50 was 12 nM.
For `N=C(NC(=O)c1ccc2c(c1)[C@@H]1O[C@H]2c2ccc(-c3ccc(F)cc3F)cc21)c1ccc(N)cc1` (single isomer, unassigned) [Example 221], the IC50 is 10000 nM.
The figure for `Cc1nc(N)cc(C2=CCOCC2)c1CNC(=O)c1ccc2c(c1)[C@@H]1O[C@H]2c2ccc(-c3ccc(F)cc3F)cc21` (single isomer, unassigned) [Example 222] is 28.2 nM.
The result for `Cc1ccc(-c2ccc3c(c2)[C@H]2O[C@@H]3c3ccc(C(=O)NCc4ccc(C(=N)N)cc4)cc32)o1` (single isomer, unassigned) [Example 223] reads 33.9 nM; that for `Cc1cc(N)nc(C)c1CNC(=O)c1ccc2c(c1)[C@@H]1O[C@H]2c2ccc(Cn3ccccc3=O)cc21` (single isomer, unassigned) [Example 224], 1 nM; that for `Nc1nccc2c(CNC(=O)c3ccc4c(c3)[C@@H]3O[C@H]4c4ccc(C(=O)c5ccccc5)cc43)cccc12` (single isomer, unassigned) [Example 226], 36.3 nM.
The figure for `C=C(C)c1cc(N)nc(C)c1CNC(=O)c1ccc2c(c1)[C@@H]1O[C@H]2c2ccc(-c3ccc(F)cc3F)cc21` (single isomer, unassigned) [Example 227] is 12 nM; for `Cc1cc(N)nc(C)c1CNC(=O)c1ccc2c(c1)[C@@H]1O[C@H]2c2ccc(C(=O)c3cccc(F)c3)cc21` (single isomer, unassigned) [Example 228] it is 12 nM; for `Cc1cc(N)nc(C)c1CNC(=O)c1ccc2c(c1)[C@@H]1O[C@H]2c2ccc(NC(=O)c3ccccc3)cc21` (single isomer, unassigned) [Example 229] it is 10000 nM.
Turning to `CCN(c1cccc(F)c1)c1ccc2c(c1)[C@H]1O[C@@H]2c2ccc(C(=O)NCc3c(C)cc(N)nc3C)cc21` (single isomer, unassigned) [Example 230], the IC50 was 12 nM.
The figure for `N=C(N)c1ccc(CNC(=O)c2ccc3c(c2)[C@@H]2O[C@H]3c3ccc(Oc4cccc(F)c4)cc32)cc1` (single isomer, unassigned) [Example 231] is 33.9 nM; for `N=C(N)c1ccc(CNC(=O)c2ccc3c(c2)[C@@H]2O[C@H]3c3ccc(N4CC5CCC(C4)O5)cc32)cc1` (single isomer, unassigned) [Example 232] it is 38.9 nM.
For `CCc1ccc2c(c1)[C@H]1O[C@@H]2c2ccc(C(=O)NCc3ccc(C(=N)N)cc3)cc21` (single isomer, unassigned) [Example 233], the IC50 is 7.08 nM.
The result for `CCN(C(=O)c1ccccc1)c1ccc2c(c1)[C@H]1O[C@@H]2c2ccc(C(=O)NCc3c(C)cc(N)nc3C)cc21` (single isomer, unassigned) [Example 234] reads 10000 nM; that for `Cc1cc(N)nc(C)c1CNC(=O)c1ccc2c(c1)[C@@H]1O[C@H]2c2ccc(CN3CCCN(C)C3=O)cc21` (single isomer, unassigned) [Example 235], 12.9 nM.
Turning to `N=C(N)c1ccc(CNC(=O)c2ccc3c(c2)[C@@H]2O[C@H]3c3ccc(N4CCCC4)cc32)cc1` (single isomer, unassigned) [Example 236], the IC50 was 2 nM.
The figure for `Nc1noc2c(CNC(=O)c3ccc4c(c3)[C@@H]3O[C@H]4c4ccc(-c5ccccc5F)cc43)cccc12` (single isomer, unassigned) [Example 237] is 10000 nM; for `N=C(N)c1ccc(CNC(=O)c2ccc3c(c2)[C@@H]2O[C@H]3c3ccccc32)cc1` (single isomer, unassigned) [Example 238] it is 324 nM.
The result for `CCN(c1ccc2c(c1)[C@H]1O[C@@H]2c2ccc(C(=O)NCc3c(C)cc(N)nc3C)cc21)c1ccccc1F` (single isomer, unassigned) [Example 239] reads 234 nM; that for `Cc1c(CNC(=O)c2ccc3c(c2)[C@@H]2O[C@H]3c3ccc(-c4ccccc4F)cc32)cnc(N)c1C` (single isomer, unassigned) [Example 242], 2750 nM; that for `N=C(N)c1ccc(NC(=O)c2ccc3c(c2)[C@@H]2O[C@H]3c3ccc(-c4ccc(F)cc4F)cc32)cc1` (single isomer, unassigned) [Example 244], 10700 nM.
The figure for `Nc1noc2ccc(NC(=O)c3ccc4c(c3)[C@@H]3O[C@H]4c4ccc(-c5ccc(F)cc5F)cc43)cc12` (single isomer, unassigned) [Example 245] is 10000 nM.
In the case of `Cc1nc(N)cc(C(F)(F)F)c1CNC(=O)c1ccc2c(c1)[C@@H]1O[C@H]2c2ccc(-c3ccc(F)cc3F)cc21` (single isomer, unassigned) [Example 246], the IC50 is 10700 nM.
Take `Cc1nc(N)cc(C2CCOCC2)c1CNC(=O)c1ccc2c(c1)[C@@H]1O[C@H]2c2ccc(-c3ccc(F)cc3F)cc21` (single isomer, unassigned) [Example 247]: the IC50 is 5.01 nM.
In the case of `CCc1cc(N)nc(CC)c1CNC(=O)c1ccc2c(c1)[C@@H]1O[C@H]2c2ccc(-c3ccc(F)cc3F)cc21` (single isomer, unassigned) [Example 248], the IC50 was 2570 nM.
The figure for `Cc1cc(N)nc(C)c1CNC(=O)c1ccc2c(c1)[C@@H]1O[C@H]2c2ccc(N(c3cccc(F)c3)C(C)C)cc21` (single isomer, unassigned) [Example 249] is 93.3 nM.
The result for `CCCN(c1cccc(F)c1)c1ccc2c(c1)[C@H]1O[C@@H]2c2ccc(C(=O)NCc3c(C)cc(N)nc3C)cc21` (single isomer, unassigned) [Example 250] reads 33.1 nM.
Regarding `Cc1cc(N)nc(C)c1CNC(=O)c1ccc2c(c1)[C@@H]1O[C@H]2c2ccc(-c3cn4ccccc4n3)cc21` (single isomer, unassigned) [Example 252], the IC50 is 93.3 nM.
The figure for `COc1ccc(CNC(=O)c2ccc3c(c2)[C@@H]2O[C@H]3c3ccc(-c4ccccc4F)cc32)cc1` (single isomer, unassigned) [Example 253] is 100000 nM.
The result for `Cc1cc(N)nc(C)c1CNC(=O)c1ccc2c(c1)[C@@H]1O[C@H]2c2ccc(Cc3ccccc3)cc21` (single isomer, unassigned) [Example 254] reads 19.1 nM; that for `N=C(N)c1cc(F)c(CNC(=O)c2ccc3c(c2)[C@@H]2O[C@H]3c3ccc(-c4ccc(F)cc4F)cc32)c(F)c1` (single isomer, unassigned) [Example 256], 0.759 nM.
The figure for `Nc1cc(C2CC2)c(CNC(=O)c2ccc3c(c2)[C@@H]2O[C@H]3c3ccc(-c4ccc(F)cc4F)cc32)c(C2CC2)n1` (single isomer, unassigned) [Example 257] is 200000 nM.
Turning to `N=C(N)c1cccc(NC(=O)c2ccc3c(c2)[C@@H]2O[C@H]3c3ccc(-c4ccc(F)cc4F)cc32)c1` (single isomer, unassigned) [Example 258], the IC50 was 10000 nM.

For the origin of these results see patent US10144746B2 (GLOBAL BLOOD THERAPEUTICS, INC., priority 2015, dated 2018).
